Each structure is given as a SMILES string.

In experiment [1] the target is T1, Polyunsaturated fatty acid 5-lipoxygenase (Rattus norvegicus) (UniProt P12527).
T1 sequence (whole entry): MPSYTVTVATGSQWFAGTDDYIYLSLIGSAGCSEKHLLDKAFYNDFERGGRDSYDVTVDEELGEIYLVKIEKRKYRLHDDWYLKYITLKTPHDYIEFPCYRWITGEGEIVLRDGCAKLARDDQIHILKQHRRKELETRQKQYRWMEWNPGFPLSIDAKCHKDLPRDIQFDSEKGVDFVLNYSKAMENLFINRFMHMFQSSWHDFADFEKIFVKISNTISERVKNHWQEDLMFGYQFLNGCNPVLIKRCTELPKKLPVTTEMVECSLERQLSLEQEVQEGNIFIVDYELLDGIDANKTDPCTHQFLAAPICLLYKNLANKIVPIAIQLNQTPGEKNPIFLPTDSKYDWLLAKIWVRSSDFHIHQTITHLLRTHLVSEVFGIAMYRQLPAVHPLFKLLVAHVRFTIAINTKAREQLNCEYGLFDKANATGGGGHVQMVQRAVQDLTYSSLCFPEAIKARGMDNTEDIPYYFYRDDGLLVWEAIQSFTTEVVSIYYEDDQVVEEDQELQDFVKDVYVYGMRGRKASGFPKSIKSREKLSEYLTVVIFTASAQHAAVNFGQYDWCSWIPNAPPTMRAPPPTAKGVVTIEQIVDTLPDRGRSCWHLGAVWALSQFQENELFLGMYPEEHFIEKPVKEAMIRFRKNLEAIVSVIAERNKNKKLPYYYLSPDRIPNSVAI
Put plainly: Inhibition of rat 5-lipoxygenase in rat RBL1 cells at 30 uM. The format is cell-based. Particulars: RBL-1.

The target in experiment [2] is T1, Polyunsaturated fatty acid 5-lipoxygenase (Rattus norvegicus). The conditions noted are these: RBL-1, 15 uM.
Description: Inhibition of rat 5-lipoxygenase in rat RBL1 cells at 15 uM

Turning to `COC(=O)c1ccc(O)c(Oc2cc(C(=O)OC)ccc2O)c1`, the inhibition (in general, the change of the read-out against control, counted positive when it falls) in experiment [1] was 64%. Compound `O=C1CCN(c2ccccc2)N1` displayed an inhibition in experiment [2] of 50%.
